Results as given in ChEMBL document CHEMBL5518164, “Membrane-permeable tenofovir-di- and monophosphate analogues” (Eur J Med Chem, 2024).
pEC50: −log10 of the molar value. The source made the active and inactive calls. The rule behind the calls is not given here.

What was measured:
[1] = Drug metabolism in heparin-stabilized human plasma assessed as (R)-9-(2-(phosphonomethoxy)propyl)adenine formation by HPLC analysis; format: ADME, cell-free
[2] = tested on: Human immunodeficiency virus; assay: Substrate activity at HIV reverse transcriptase assessed as n+1 band formation incubated for 30 mins in presence of primer/template mixture and dNTPs by primer extension assay based fluorescence analysis
[3] = tested on: Human immunodeficiency virus 2; assay: Antiviral activity against HIV-2 ROD infected in wild type human CEM/0 cells assessed as inhibition of virus-induced giant cell formation incubated for 4 to 5 days by light microscopy; format: functional, organism-based; settings: Human immunodeficiency virus 2, ROD, CCRF-CEM
[4] = tested on: Human immunodeficiency virus 2; assay: Potency index, ratio of Tenofovir EC50 to test compound EC50 for antiviral activity against HIV-2 ROD infected in wild type human CEM/0 cells; format: functional
[5] = Half life of the compound in phosphate buffer saline in presence of pig liver esterase at pH 7.3 by RP18-HPLC analysis; format: ADME, Sus scrofa
[6] = Half life of the compound in phosphate buffer saline at pH 7.3 by RP18-HPLC analysis; format: ADME
[7] = tested on: Human immunodeficiency virus 1; assay: Potency index, ratio of Tenofovir EC50 to test compound EC50 for antiviral activity against HIV-1 HE infected in wild type human CEM/0 cells; format: functional
[8] = Half life of the compound in human CEM/0 cell extracts by RP18-HPLC analysis; format: ADME, CCRF-CEM
[9] = Drug metabolism in human CEM/0 cell extracts assessed as (R)-9-(2-(phosphonomethoxy)propyl)adenine formation by RP18-HPLC analysis; format: ADME; settings: ccrf-cem
[10] = tested on: Human immunodeficiency virus 2; assay: Antiviral activity against HIV-2 ROD infected in thymidine kinase deficient human CEM cells assessed as inhibition of virus-induced giant cell formation incubated for 4 to 5 days by light microscopy; format: functional, organism-based; settings: Human immunodeficiency virus 2, ROD, CCRF-CEM
[11] = Drug metabolism in phosphate buffer saline assessed as (R)-9-(2-(phosphonomethoxy)propyl)adenine formation in presence of pig liver esterase at pH 7.3 by RP18-HPLC analysis; format: ADME, Sus scrofa; settings: isolated protein
[12] = tested on: Human immunodeficiency virus 2; assay: Potency index, ratio of Tenofovir EC50 to test compound EC50 for antiviral activity against HIV-2 ROD infected in thymidine kinase deficient human CEM cells; format: functional
[13] = Half life of the compound in citrate-containing human plasma by HPLC analysis; format: ADME, cell-free
[14] = molecular target: DNA polymerase beta (Homo sapiens) (UniProt P06746); assay: Substrate activity at human DNA polymerase beta assessed as n+1 band formation incubated for 120 mins in presence of primer/template mixture and dNTPs by primer extension assay based fluorescence analysis
[15] = Drug metabolism in human CEM/0 cell extracts assessed as Tenofovir monophosphate formation by RP18-HPLC analysis; format: ADME; settings: ccrf-cem
[16] = Drug metabolism in phosphate buffer saline assessed as Tenofovir diphosphate formation in presence of pig liver esterase at pH 7.3 by RP18-HPLC analysis; format: ADME, Sus scrofa; settings: isolated protein
[17] = Drug metabolism in human CEM/0 cell extracts assessed as Tenofovir diphosphate formation by RP18-HPLC analysis; format: ADME; settings: ccrf-cem
[18] = Drug hydrolysis in phosphate buffer saline incubated for 500 hrs at pH 7.3 by RP18-HPLC analysis; format: physicochemical; settings: read-out: Drug degradation
[19] = Drug metabolism in human CEM/0 cell extracts assessed as gamma-monoalkylated metabolite formation by RP18-HPLC analysis; format: ADME; settings: ccrf-cem
[20] = Drug metabolism in phosphate buffer saline assessed as gamma-monoalkylated metabolite formation in presence of pig liver esterase at pH 7.3 by RP18-HPLC analysis; format: ADME, Sus scrofa; settings: isolated protein
[21] = Drug hydrolysis in phosphate buffer saline incubated for 600 hrs at pH 7.3 by RP18-HPLC analysis; format: physicochemical; settings: read-out: Drug degradation
[22] = Drug hydrolysis in phosphate buffer saline incubated for 100 hrs in presence of pig liver esterase at pH 7.3 by RP18-HPLC analysis; format: ADME, Sus scrofa; settings: read-out: Drug degradation

Row | Drug metabolism [1] | Activity [2] | pEC50 [3] | half-life [5] [h] | half-life [6] [h] | half-life [8] [h] | pEC50 [10] | half-life [13] [h] | Activity [14] | Drug metabolism [15] | Drug metabolism [16] | Drug metabolism [20] | metabolised at 100 h [22] [%] | SMILES | also measured
1 | Metabolite_Detected | inactive | 8.52 | 24 | 27 | 5.1 | 8.70 | > 5 | inactive | – | – | – | – | CCCCCCCCCCCCCCCCCCP(=O)(OCCCC)OP(=O)(O)CO[C@H](C)Cn1cnc2c(N)ncnc21 (some centres undefined) | Ratio EC50 [4]: 567; Ratio EC50 [7]: 59; Drug metabolism [9]: Metabolite_Detected; Drug metabolism [11]: Metabolite_Detected; Ratio EC50 [12]: 326
2 | Metabolite_Detected | inactive | 7.21 | > 100 | > 500 | > 8 | 7.48 | > 8 | inactive | Metabolite_Detected | Metabolite_Notdetected | Metabolite_Notdetected | 16 | CCCCCCCCCCCCCCCCCCP(=O)(OCCCC)OP(=O)(O)OP(=O)(O)CO[C@H](C)Cn1cnc2c(N)ncnc21 (some centres undefined) | Drug metabolism [17]: Metabolite_Notdetected; degraded at 500 h [18]: 40%; Drug metabolism [19]: Metabolite_Notdetected; degraded at 600 h [21]: 45%
3 | Metabolite_Detected | Active | 7.72 | > 100 | 257 | > 20 | 7.92 | > 8 | inactive | Metabolite_Detected | Metabolite_Notdetected | Metabolite_Notdetected | 31 | CCCCCCCCCCCCCCCCCCOP(=O)(OCCCC)OP(=O)(O)OP(=O)(O)CO[C@H](C)Cn1cnc2c(N)ncnc21 (some centres undefined) | –
